The numbers were not newly measured in patent US9371295B2, “Compounds for use in the treatment of disorders that are ameliorated by inhibition of HDAC” (IRBM—Science Park S.p.A., priority 2012, dated 2016), which cites them from elsewhere.

SMILES strings stand for the structures.

The subject of this data set is human γ-globin gene. The conditions noted are these: transgenic mice; Cao, H Exp. Hematol. 2005; cited from earlier work.

In the case of `CCCC(=O)NO` [butyryl hydroxamate], the “increase of human γ/murine α-globin mRNA ratios” value is reported as 33.9%.
